Columns and labels:
[1] = test system: GSH level in the liver and in the kidney; experiment: GSH level in liver and kidney of starved mice, time course (Example 6); type: in vivo; conditions: mice starved 24 hours, 10 mmol/kg i.p., 2 to 3 hours after the administration
Procedure: The test compound was dissolved in sterile water to give a test solution. Groups of 3 mice, each having a body weight of 20 to 25 g, were starved over a period of 24 hours and treated intraperitoneally with a dose of 10 mmol/kg of the test compound. Mice were dissected by every two hours, and the liver and kidney were taken out. GSH analysis was performed on each of the organs.

[2] = test system: mice treated with lethal dose of acetaminophen; experiment: Survival of starved mice after lethal dose of acetaminophen (Example 8); type: in vivo; conditions: acetaminophen 5 mmol/kg i.p., test compound 10 mmol/kg one hour later, 15 mice
Description: Starved mice were intraperitoneally treated with 5 mmol/kg (lethal dose) of acetaminophen and, one hour later, with 10 mmol/kg of the test compound.

[3] = test system: glutathione levels of the liver and kidney; experiment: Liver and kidney glutathione levels of fasted mice given glutathione ester or glutathione (Example 1, Comparative Example 1); type: in vivo
Procedure: A solution of the glutathione ester was prepared in aseptic water. […] At intervals of 2 hours, as shown in FIGS. 1(a) and (b), the animals were decapitated and the liver and kidney tissues were removed and analyzed for glutathione. Using groups of 3 mice each, values are given as means±S.D.

[4] = test system: mice given a lethal dose of acetaminophen; conditions: acetaminophen 5 mmole per kilogram, ester 10 mmole per kilogram 1 hour later, 15 mice
[5] = test system: glutathione levels of the liver and kidney; experiment: Liver and kidney glutathione levels of mice pretreated with buthionine sulfoximine (Example 2); type: in vivo; conditions: 2 mmol/kg buthionine sulfoximine
Description: Controls were again given saline, with tissue levels of GSH being determined at the indicated intervals. Values are means±S.D., using groups of 3 mice each.

[6] = mice fasted 24 hours, intraperitoneal 10 millimoles per kilogram, 2 hours after administration, vs 0.15M NaCl controls

Row | Structure (SMILES) | GSH level in the kidney [1] | GSH level in the liver [1] | survival after 7 days [2] | further results
1 | CC(C)COC(=O)CNC(=O)[C@H](CS)NC(=O)CC[C@H](N)C(=O)O [GSH monoisobutyl ester, Isobutyl γ-L-glutamyl-L-cysteinylglycinate] | substantial elevation | substantial elevation | survived and were recovered clearly after 7 days | 
2 | CCCCCCOC(=O)CNC(=O)[C@H](CS)NC(=O)CC[C@H](N)C(=O)O [GSH mono-n-hexyl ester, n-Hexyl γ-L-glutamyl-L-cysteinylglycinate] | substantial elevation | substantial elevation | survived and were recovered clearly after 7 days | 
3 | CC(C)OC(=O)CNC(=O)[C@H](CS)NC(=O)CC[C@H](N)C(=O)O [GSH monoisopropyl ester, Isopropyl γ-L-glutamyl-L-cysteinylglycinate] | substantial elevation | substantial elevation | survived and were recovered clearly after 7 days | 
4 | COC(=O)CNC(=O)[C@H](CS)NC(=O)CC[C@H](N)C(=O)O [glutathione monomethyl ester] |  |  |  | glutathione level of the kidney [3, 6]: increased substantially; glutathione level of the liver [3, 6]: increased substantially; fatalities / survival at 7 days [4]: no fatalities were observed
5 | CCOC(=O)CNC(=O)[C@H](CS)NC(=O)CC[C@H](N)C(=O)O [glutathione monoethyl ester, L-γ-Glutamyl-L Cysteinyl Glycyl Ethyl Ester] |  |  |  | effects on liver and kidney glutathione levels compared with glutathione monomethyl ester ([3]; fasted mice, as Example 1): about the same
6 | N[C@@H](CCC(=O)N[C@@H](CS)C(=O)NCC(=O)O)C(=O)O [GSH, L-γ-glutamyl-L-cysteinyl-glycine, reference compound] | slight elevation | No elevation |  | glutathione level of the kidney [3, 6]: only a slight effect
7 | CCCCS(=N)(=O)CCC(N)C(=O)O (centres unmarked) [buthionine sulfoximine] |  |  |  | glutathione levels of the liver and kidney after the inhibitor [5]: decreased to a very low value

Source: patent US4879370A, “Glutathione delivery system” (Cornell Research Foundation, Inc., priority 1985, dated 1989)
